Results reported in US10125129B2 (priority 2016, dated 2018).

Biological target: T1, μ opioid receptor (MOR) (Homo sapiens, UniProt P35372)
T1 construct: expressed in transfected cells
Assay: cell-based
Format: cell-based
Conditions: EC50

T1 sequence (P35372 whole entry): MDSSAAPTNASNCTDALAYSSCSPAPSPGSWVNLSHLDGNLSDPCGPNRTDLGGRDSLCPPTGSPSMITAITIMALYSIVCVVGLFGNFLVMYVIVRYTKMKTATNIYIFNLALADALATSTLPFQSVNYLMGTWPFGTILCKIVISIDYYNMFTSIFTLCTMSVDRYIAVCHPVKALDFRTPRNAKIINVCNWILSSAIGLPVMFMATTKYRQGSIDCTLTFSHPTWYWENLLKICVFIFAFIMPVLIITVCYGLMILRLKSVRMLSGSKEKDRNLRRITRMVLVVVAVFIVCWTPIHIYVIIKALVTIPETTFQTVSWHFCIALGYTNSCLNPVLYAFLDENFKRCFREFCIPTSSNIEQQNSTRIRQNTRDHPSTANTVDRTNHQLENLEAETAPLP

First: COC(=O)[C@@H]1C=C(OC(=O)c2cncs2)C(=O)[C@H]2[C@@]1(C)CC[C@H]1C(=O)O[C@H](c3ccoc3)C[C@]21C [Table 3 Entry 8, (2S,4aR,6aR,7R,10aR,10bR)-2-(Furan-3-yl)-7-(methoxycarbonyl)-6a,10b-dimethyl-4,10-dioxo-2,4,4a,5,6,6a,7,10,10a,10b-decahydro-1H-benzo[f]isochromen-9-yl thiazole-5-carboxylate]
Second: COC(=O)[C@@H]1C=C(OC(=O)c2cscn2)C(=O)[C@H]2[C@@]1(C)CC[C@H]1C(=O)O[C@H](c3ccoc3)C[C@]21C [Table 3 Entry 7, (2S,4aR,6aR,7R,10aR,10bR)-2-(Furan-3-yl)-7-(methoxycarbonyl)-6a,10b-dimethyl-4,10-dioxo-2,4,4a,5,6,6a,7,10,10a,10b-decahydro-1H-benzo[f]isochromen-9-yl thiazole-4-carboxylate]
The EC50 of the first is higher: > 10 µM for the first, 0.008 ± 0.003 µM for the second.

Compared with `COC(=O)[C@@H]1C=C(OC(=O)Cc2ccccc2)C(=O)[C@H]2[C@@]1(C)CC[C@H]1C(=O)O[C@H](c3ccoc3)C[C@]21C` [Table 3 Entry 4, (2S,4aR,6aR,7R,10aR,10bR)-Methyl 2-(furan-3-yl)-6a,10bdimethyl-4,10-dioxo-9-(2-phenylacetoxy)-2,4,4a,5,6,6a,7,10a,10b-decahydro-1Hbenzo[f]isochromene-7-carboxylate], `COC(=O)[C@@H]1C=C(OC(=O)c2cc3ccccc3s2)C(=O)[C@H]2[C@@]1(C)CC[C@H]1C(=O)O[C@H](c3ccoc3)C[C@]21C` [Table 3 Entry 13] is 22-fold lower in EC50: 0.13 ± 0.05 µM for the first, 0.006 ± 0.001 µM for the second.

First: COC(=O)[C@@H]1C=C(OC(=O)c2cnco2)C(=O)[C@H]2[C@@]1(C)CC[C@H]1C(=O)O[C@H](c3ccoc3)C[C@]21C [Table 3 Entry 10, (2S,4aR,6aR,7R,10aR,10bR)-2-(Furan-3-yl)-7-(methoxycarbonyl)-6a,10b-dimethyl-4,10-dioxo-2,4,4a,5,6,6a,7,10,10a,10b-decahydro-1H-benzo[f]isochromen-9-yl oxazole-5-carboxylate]
Second: COC(=O)[C@@H]1C=C(OC(=O)c2cocn2)C(=O)[C@H]2[C@@]1(C)CC[C@H]1C(=O)O[C@H](c3ccoc3)C[C@]21C [Table 3 Entry 9, (2S,4aR,6aR,7R,10aR,10bR)-2-(Furan-3-yl)-7-(methoxycarbonyl)-6a,10b-dimethyl-4,10-dioxo-2,4,4a,5,6,6a,10,10a,10b-decahydro-1H-benzo[f]isochromen-9-yl oxazole-4-carboxylate]
The EC50 of the first is higher: > 10 µM for the first, 0.03 ± 0.002 µM for the second. The second is the more potent here.

Same assay, conditions: Series 1 EC50

Going from `COC(=O)[C@@H]1C[C@H](OC(=O)c2cccc([N+](=O)[O-])c2)C(=O)[C@H]2[C@@]1(C)CC[C@H]1C(=O)O[C@H](c3ccoc3)C[C@]21C` [Series 1 Entry 3] to `COC(=O)[C@@H]1C[C@H](OC(=O)c2cccc(C)c2)C(=O)[C@H]2[C@@]1(C)CC[C@H]1C(=O)O[C@H](c3ccoc3)C[C@]21C` [Series 1 Entry 12, (2S,4aR,6aR,7R,9S,10aS,10bR)-Methyl 2-(furan-3-yl)-6a,10b-dimethyl-9-((3-methylbenzoyl)oxy)-4,10-dioxododecahydro-1H-benzo[f]isochromene-7-carboxylate], the EC50 falls from 3.5 ± 0.2 µM to 1.8 ± 0.3 µM (1.9-fold).

`COC(=O)[C@@H]1C[C@H](OC(=O)c2ccccc2[N+](=O)[O-])C(=O)[C@H]2[C@@]1(C)CC[C@H]1C(=O)O[C@H](c3ccoc3)C[C@]21C` [Series 1 Entry 2] and `COC(=O)[C@@H]1C[C@H](OC(=O)c2ccccc2C)C(=O)[C@H]2[C@@]1(C)CC[C@H]1C(=O)O[C@H](c3ccoc3)C[C@]21C` [Series 1 Entry 11, (2S,4aR,6aR,7R,9S,10aS,10bR)-Methyl 2-(furan-3-yl)-6a,10b-dimethyl-9-((2-methylbenzoyl)oxy)-4,10-dioxododecahydro-1H-benzo[f]isochromene-7-carboxylate] are within error of each other in EC50: 2 ± 1 µM for the first, 1.6 ± 0.4 µM for the second.

Going from `COC(=O)[C@@H]1C[C@H](OC(=O)c2cccc(Cl)c2)C(=O)[C@H]2[C@@]1(C)CC[C@H]1C(=O)O[C@H](c3ccoc3)C[C@]21C` [Series 1 Entry 6, (2S,4aR,6aR,7R,9S,10aS,10bR)-Methyl 9-((3-chlorobenzoyl)oxy)-2-(furan-3-yl)-6a,10b-dimethyl-4,10-dioxododecahydro-1H-benzo[f]isochromene-7-carboxylate] to `COC(=O)[C@@H]1C[C@H](OC(=O)c2ccc(Cl)cc2)C(=O)[C@H]2[C@@]1(C)CC[C@H]1C(=O)O[C@H](c3ccoc3)C[C@]21C` [Series 1 Entry 7, (2S,4aR,6aR,7R,9S,10aS,10bR)-Methyl 9-((4-chlorobenzoyl)oxy)-2-(furan-3-yl)-6a,10b-dimethyl-4,10-dioxododecahydro-1H-benzo[f]isochromene-7-carboxylate], the EC50 falls from 2.4 ± 0.1 µM to 0.7 ± 0.1 µM (3.4-fold). The second is the more potent here.

Compared with `COC(=O)[C@@H]1C[C@H](OC(=O)c2ccccc2OC)C(=O)[C@H]2[C@@]1(C)CC[C@H]1C(=O)O[C@H](c3ccoc3)C[C@]21C` [Series 1 Entry 14], `COC(=O)[C@@H]1C[C@H](OC(=O)c2ccccc2F)C(=O)[C@H]2[C@@]1(C)CC[C@H]1C(=O)O[C@H](c3ccoc3)C[C@]21C` [Series 1 Entry 8, (2S,4aR,6aR,7R,9S,10aS,10bR)-Methyl 9-((2-fluorobenzoyl)oxy)-2-(furan-3-yl)-6a,10b-dimethyl-4,10-dioxododecahydro-1H-benzo[f]isochromene-7-carboxylate] is 8.2-fold lower in EC50: 3.3 ± 0.3 µM for the first, 0.4 ± 0.1 µM for the second. The second is the more potent here.

Compared with `COC(=O)[C@@H]1C[C@H](OC(=O)c2ccc(F)cc2)C(=O)[C@H]2[C@@]1(C)CC[C@H]1C(=O)O[C@H](c3ccoc3)C[C@]21C` [Series 1 Entry 10, (2S,4aR,6aR,7R,9S,10aS,10bR)-Methyl 9-((4-fluorobenzoyl)oxy)-2-(furan-3-yl)-6a,10b-dimethyl-4,10-dioxododecahydro-1H-benzo[f]isochromene-7-carboxylate], `COC(=O)[C@@H]1C[C@H](OC(=O)c2cccs2)C(=O)[C@H]2[C@@]1(C)CC[C@H]1C(=O)O[C@H](c3ccoc3)C[C@]21C` [Series 1 Entry 20] is 2.4-fold lower in EC50: 0.8 ± 0.2 µM for the first, 0.33 ± 0.07 µM for the second. The second is the more potent here.

Same assay, conditions: Series 2 EC50

Compared with `COC(=O)[C@@H]1C=C(OC(=O)c2cccc([N+](=O)[O-])c2)C(=O)[C@H]2[C@@]1(C)CC[C@H]1C(=O)O[C@H](c3ccoc3)C[C@]21C` [Series 2 Entry 3, (2S,4aR,6aR,7R,10aR,10bR)-Methyl 2-(furan-3-yl)-6a,10b-dimethyl-9-((3-nitrobenzoyl)oxy)-4,10-dioxo-2,4,4a,5,6,6a,7,10,10a,10b-decahydro-1H-benzo[f]isochromene-7-carboxylate], `COC(=O)[C@@H]1C=C(OC(=O)c2cccc(C)c2)C(=O)[C@H]2[C@@]1(C)CC[C@H]1C(=O)O[C@H](c3ccoc3)C[C@]21C` [Series 2 Entry 12, (2S,4aR,6aR,7R,10aR,10bR)-Methyl 2-(furan-3-yl)-6a,10b-dimethyl-9-((3-methylbenzoyl)oxy)-4,10-dioxo-2,4,4a,5,6,6a,7,10,10a,10b-decahydro-1H-benzo[f]isochromene-7-carboxylate] is 2-fold lower in EC50: 0.32 ± 0.01 µM for the first, 0.16 ± 0.03 µM for the second. The second is the more potent here.

Compared with `COC(=O)[C@@H]1C=C(OC(=O)c2ccc(F)cc2)C(=O)[C@H]2[C@@]1(C)CC[C@H]1C(=O)O[C@H](c3ccoc3)C[C@]21C` [Series 2 Entry 10, (2S,4aR,6aR,7R,10aR,10bR)-Methyl 9-((4-fluorobenzoyl)oxy)-2-(furan-3-yl)-6a,10b-dimethyl-4,10-dioxo-2,4,4a,5,6,6a,7,10,10a,10b-decahydro-1H-benzo[f]isochromene-7-carboxylate], `COC(=O)[C@@H]1C=C(OC(=O)c2ccsc2)C(=O)[C@H]2[C@@]1(C)CC[C@H]1C(=O)O[C@H](c3ccoc3)C[C@]21C` [Series 2 Entry 21, (2S,4aR,6aR,7R,10aR,10bR)-Methyl 2-(furan-3-yl)-6a,10bdimethyl-4,10-dioxo-9-((thiophene-3-carbonyl)oxy)-2,4,4a,5,6,6a,7,10,10a,10b-decahydro-1H-benzo[f]isochromene-7-carboxylate] is 3.8-fold lower in EC50: 0.005 ± 0.001 µM for the first, 0.0013 ± 0.0009 µM for the second. The second is the more potent here.

First: COC(=O)[C@@H]1C=C(OC(=O)c2ccccc2Cl)C(=O)[C@H]2[C@@]1(C)CC[C@H]1C(=O)O[C@H](c3ccoc3)C[C@]21C [Series 2 Entry 5, (2S,4aR,6aR,7R,10aR,10bR)-Methyl 9-((2-chlorobenzoyl)oxy)-2-(furan-3-yl)-6a,10b-dimethyl-4,10-dioxo-2,4,4a,5,6,6a,7,10,10a,10b-decahydro-1H-benzo[f]isochromene-7-carboxylate]
Second: COC(=O)[C@@H]1C=C(OC(=O)c2ccccc2OC)C(=O)[C@H]2[C@@]1(C)CC[C@H]1C(=O)O[C@H](c3ccoc3)C[C@]21C [Series 2 Entry 14, (2S,4aR,6aR,7R,10aR,10bR)-Methyl 2-(furan-3-yl)-9-((2-methoxybenzoyl)oxy)-6a,10b-dimethyl-4,10-dioxo-2,4,4a,5,6,6a,7,10,10a,10b-decahydro-1H-benzo[f]isochromene-7-carboxylate]
The EC50 of the first is 6.9-fold lower: 0.29 ± 0.02 µM for the first, 2 ± 1 µM for the second. The first is the more potent here.

First: COC(=O)[C@@H]1C=C(OC(=O)c2cccs2)C(=O)[C@H]2[C@@]1(C)CC[C@H]1C(=O)O[C@H](c3ccoc3)C[C@]21C [Series 2 Entry 20, (2S,4aR,6aR,7R,6aR,7R,10aR,10bR)-Methyl 2-(furan-3-yl)-6a,10bdimethyl-4,10-dioxo-9-((thiophene-2-carbonyl)oxy)-2,4,4a,5,6,6a,7,10,10a,10b-decahydro-1H-benzo[f]isochromene-7-carboxylate]
Second: COC(=O)[C@@H]1C=C(OC(=O)c2cccnc2)C(=O)[C@H]2[C@@]1(C)CC[C@H]1C(=O)O[C@H](c3ccoc3)C[C@]21C [Series 2 Entry 18, (2S,4aR,6aR,7R,10aR,10bR)-2-(Furan-3-yl)-7-(methoxycarbonyl)-6a,10b-dimethyl-4,10-dioxo-2,4,4a,5,6,6a,7,10,10a,10b-decahydro-H-benzo[f]isochromen-9-yl nicotinate]
The EC50 of the first is 2.4-fold lower: 0.0014 ± 0.0008 µM for the first, 0.0033 ± 0.0008 µM for the second. The first is the more potent here.

Compound `COC(=O)[C@@H]1C=C(OC(=O)c2ccccn2)C(=O)[C@H]2[C@@]1(C)CC[C@H]1C(=O)O[C@H](c3ccoc3)C[C@]21C` [Series 2 Entry 17, (2S,4aR,6aR,7R,10aR,10bR)-2-(Furan-3-yl)-7-(methoxycarbonyl)-6a,10b-dimethyl-4,10-dioxo-2,4,4a,5,6,6a,7,10,10bdecahydro-1H-benzo[f]isochromen-9-yl picolinate] has an EC50 of 0.41 ± 0.05 µM.
